From the supplement of paper PMC10307832

Assays:
Experiment in all cases: relative viability (nuclei count vs DMSO), 5 days (fraction); higher = more cells survive
Irinotecan + Lapatinib = compound: CCc1c2c(nc3ccc(OC(=O)N4CCC(N5CCCCC5)CC4)cc13)-c1cc3c(c(=O)n1C2)COC(=O)[C@]3(O)CC [Irinotecan] + CS(=O)(=O)CCNCc1ccc(-c2ccc3ncnc(Nc4ccc(OCc5cccc(F)c5)c(Cl)c4)c3c2)o1 [Lapatinib] (partner 2 µM)
Procedure, shortened: (§1)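 For relative viability, nuclei counts in treated wells were divided by those in vehicle wells. Lung cancer cell lines had been pin-tool dosed in 1536-well plates the day after seeding and cultured for 5 days, then fixed and stained in one step (final 0.05% Triton X-100, 1% formaldehyde, 1 ug/ml Hoechst) and imaged at 4×. Doses were one drug alone or a fixed anchor-drug dose plus five library-drug doses (not always all listed) in √10 steps, and values are duplicate-plate medians.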

RU-SKI 43 + Palbociclib = compound: CC[C@@H](C)CNCC(=O)N1CCC2=C([C@@H]1COC3=CC=CC(=C3)C)C=CS2 [RU-SKI 43] + CC(=O)c1c(C)c2cnc(Nc3ccc(N4CCNCC4)cn3)nc2n(C2CCCC2)c1=O [Palbociclib] (partner 0.5 µM)
Procedure, shortened: as §1

Irinotecan + Foretinib = compound: CCc1c2c(nc3ccc(OC(=O)N4CCC(N5CCCCC5)CC4)cc13)-c1cc3c(c(=O)n1C2)COC(=O)[C@]3(O)CC [Irinotecan] + COc1cc2c(Oc3ccc(NC(=O)C4(C(=O)Nc5ccc(F)cc5)CC4)cc3F)ccnc2cc1OCCCN1CCOCC1 [Foretinib] (partner 0.25 µM)
Procedure, shortened: as §1

Irinotecan + Bortezomib = compound: CCc1c2c(nc3ccc(OC(=O)N4CCC(N5CCCCC5)CC4)cc13)-c1cc3c(c(=O)n1C2)COC(=O)[C@]3(O)CC [Irinotecan] + CC(C)C[C@H](NC(=O)[C@H](Cc1ccccc1)NC(=O)c1cnccn1)B(O)O [Bortezomib] (partner 0.002 µM)
Procedure, shortened: as §1

| Cell Line | relative viability (Irinotecan + Lapatinib; first compound 0.6325 µM) | relative viability (Irinotecan + Lapatinib; first compound 2 µM) | relative viability (Irinotecan + Lapatinib; first compound 6.325 µM) | relative viability (Irinotecan + Lapatinib; first compound 20 µM) | relative viability (RU-SKI 43 + Palbociclib; first compound 0.1 µM) | relative viability (RU-SKI 43 + Palbociclib; first compound 0.3162 µM) | relative viability (RU-SKI 43 + Palbociclib; first compound 1 µM) | relative viability (RU-SKI 43 + Palbociclib; first compound 3.162 µM) | relative viability (RU-SKI 43 + Palbociclib; first compound 10 µM) | relative viability (Irinotecan + Foretinib; first compound 0.6325 µM) | relative viability (Irinotecan + Foretinib; first compound 2 µM) | relative viability (Irinotecan + Foretinib; first compound 6.325 µM) | relative viability (Irinotecan + Foretinib; first compound 20 µM) | relative viability (Irinotecan + Bortezomib; first compound 0.6325 µM) | relative viability (Irinotecan + Bortezomib; first compound 2 µM) | relative viability (Irinotecan + Bortezomib; first compound 6.325 µM) | relative viability (Irinotecan + Bortezomib; first compound 20 µM) |
| --- | --- | --- | --- | --- | --- | --- | --- | --- | --- | --- | --- | --- | --- | --- | --- | --- | --- |
| LXF-289 | 0.881 | 0.883 | 0.315 | 0.236 | 0.605 | 0.666 | 0.615 | 0.61 | 0.607 | 1.05 | 0.615 | 0.167 | 0.2 | 0.896 | 0.987 | 0.263 | 0.205 |
| NCI-H23 | 0.653 | 0.466 | 0.277 | 0.271 | 0.464 | 0.515 | 0.548 | 0.568 | 0.47 | 0.471 | 0.258 | 0.227 | 0.25 | 0.941 | 0.664 | 0.291 | 0.306 |
| NCI-H322M | 0.585 | 0.654 | 0.328 | 0.363 | 0.459 | 0.483 | 0.44 | 0.524 | 0.457 | 0.971 | 0.882 | 0.491 | 0.368 | 1.34 | 0.859 | 0.564 | 0.347 |
| NCI-H460 | 0.287 | 0.475 | 0.0664 | 0.0537 | 0.222 | 0.165 | 0.183 | 0.199 | 0.128 | 0.815 | 0.418 | 0.136 | 0.0629 | 0.677 | 0.353 | 0.0854 | 0.0632 |
| NCI-H520 | 0.604 | 0.664 | 0.28 | 0.2 | 0.247 | 0.241 | 0.259 | 0.237 | 0.148 | 0.623 | 0.679 | 0.352 | 0.283 | 0.446 | 0.477 | 0.252 | 0.138 |
| NCI-H647 | 0.865 | 0.44 | 0.199 | 0.138 | 0.472 | 0.371 | 0.382 | 0.471 | 0.287 | 0.986 | 0.742 | 0.174 | 0.132 | 0.76 | 0.462 | 0.227 | 0.103 |
| NCI-H650 | 0.757 | 0.693 | 0.275 | 0.31 | 0.344 | 0.312 |  | 0.338 | 0.337 | 0.981 | 0.774 | 0.226 | 0.15 | 0.689 | 0.507 | 0.262 | 0.385 |
| NCI-H661 | 0.478 | 0.357 | 0.314 | 0.296 | 0.384 | 0.398 | 0.401 | 0.348 | 0.344 | 0.957 | 0.913 | 0.605 | 0.397 | 0.701 | 0.609 | 0.354 | 0.285 |
| NCI-H727 | 0.339 | 0.503 | 0.445 | 0.369 |  | 0.559 | 0.682 | 0.671 | 0.622 | 0.65 | 0.501 | 0.477 | 0.379 | 0.358 | 0.57 | 0.463 | 0.464 |
| NCI-H838 | 1.03 | 0.874 | 0.399 | 0.161 | 0.213 | 0.233 | 0.225 | 0.239 | 0.188 | 1.11 | 0.743 | 0.392 | 0.298 | 0.986 | 0.588 | 0.583 | 0.149 |
| NCI-H1355 | 0.534 | 0.909 | 0.264 | 0.242 | 0.405 | 0.381 | 0.358 | 0.42 | 0.389 |  | 0.622 | 0.321 | 0.259 | 1.02 | 1.12 | 0.561 | 0.265 |
| NCI-H1437 | 0.527 | 0.493 | 0.253 | 0.117 | 0.32 | 0.294 | 0.348 | 0.31 | 0.246 | 0.954 | 0.616 | 0.42 | 0.368 | 0.399 | 0.355 | 0.285 | 0.171 |
| NCI-H1650 | 0.386 | 0.51 | 0.401 | 0.152 | 0.375 | 0.346 | 0.338 | 0.351 | 0.302 |  | 0.956 | 0.432 | 0.446 | 0.188 | 0.198 | 0.244 | 0.133 |
| NCI-H1651 | 0.293 | 0.536 | 0.179 | 0.101 | 0.522 | 0.533 | 0.532 | 0.537 | 0.542 | 0.593 | 0.59 | 0.295 | 0.205 |  | 0.849 | 0.553 | 0.227 |
| NCI-H1666 | 0.466 | 0.556 | 0.35 | 0.223 | 0.66 | 0.63 | 0.707 | 0.609 | 0.64 | 0.774 | 0.689 | 0.654 | 0.404 | 0.608 | 0.419 | 0.414 | 0.214 |
| NCI-H1734 | 0.883 | 0.588 | 0.186 | 0.191 | 0.351 | 0.323 | 0.358 | 0.325 | 0.298 |  | 0.52 | 0.193 | 0.187 | 0.797 | 0.674 | 0.207 | 0.174 |
| NCI-H1755 | 0.883 | 0.9 | 0.309 | 0.318 | 0.478 | 0.458 | 0.44 | 0.478 | 0.466 | 0.9 | 0.667 | 0.35 | 0.462 | 0.9 | 0.935 | 0.355 | 0.327 |
